Source: US20070021495A1, “SULFONAMIDES AS SELECTIVE ESTROGEN RECEPTOR” (priority 2005, published 2007)
“Also recorded” adds a separate entry of the source.

Columns and labels:
[1] = biological target: T1, purified full-length human ERalpha (Homo sapiens, UniProt P03372); assay: Competitive radiometric binding assay, relative binding affinity (RBA), ERalpha; conditions: normalized to estradiol set at 100%; [3H]estradiol 10 nM tracer, 18-24 h at 0° C
T1 construct: purified full-length human ERalpha and ERbeta receptors purchased from Pan Vera (Madison, Wis.); purchased Pan Vera (Madison, Wis.)
T1 sequence (P03372 1-595): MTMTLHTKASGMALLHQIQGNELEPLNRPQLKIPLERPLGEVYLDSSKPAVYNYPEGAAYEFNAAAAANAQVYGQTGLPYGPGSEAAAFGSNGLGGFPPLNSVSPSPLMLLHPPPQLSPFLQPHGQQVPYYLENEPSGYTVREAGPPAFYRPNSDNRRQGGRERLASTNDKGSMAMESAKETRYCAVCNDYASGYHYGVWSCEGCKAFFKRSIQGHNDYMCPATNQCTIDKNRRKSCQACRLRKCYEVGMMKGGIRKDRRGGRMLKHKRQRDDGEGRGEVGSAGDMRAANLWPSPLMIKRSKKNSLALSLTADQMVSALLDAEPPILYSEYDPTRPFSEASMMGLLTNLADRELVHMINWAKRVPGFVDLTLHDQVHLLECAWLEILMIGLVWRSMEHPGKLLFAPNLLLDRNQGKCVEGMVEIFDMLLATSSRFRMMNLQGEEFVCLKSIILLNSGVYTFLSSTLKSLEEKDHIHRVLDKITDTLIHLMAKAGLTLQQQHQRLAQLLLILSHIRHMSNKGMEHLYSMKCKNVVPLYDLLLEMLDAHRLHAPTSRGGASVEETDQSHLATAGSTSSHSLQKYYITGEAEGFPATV
Method: Incubations were for 18-24 h at 0° C. Hydroxyapatite (BioRad, Hercules, Calif.) was used to absorb the receptor-ligand complexes and free ligand was washed away. […] The values given are the average±range or SD of two to three independent determinations.

[2] = biological target: T2, purified full-length human ERbeta (Homo sapiens, UniProt Q92731); assay: Competitive radiometric binding assay, relative binding affinity (RBA), ERbeta; conditions: for Relative binding affinity (RBA) ERβ: normalized to estradiol set at 100%, [3H]estradiol 10 nM tracer, 18-24 h at 0° C; for ERβ/ERα (ratio of RBAs): ratio of RBA ERβ to RBA ERα; for ER beta selectivity: binding selectivity ER beta over ER alpha
T2 construct: purified full-length human ERalpha and ERbeta receptors purchased from Pan Vera (Madison, Wis.); purchased Pan Vera (Madison, Wis.)
From the text: The relative binding affinities (RBAs) of potential ER ligands can be measured using purified full length human ERalpha and ERbeta receptors in a competitive radiometric binding assay, according to published procedures (Carlson, K. E.; Choi, I.; Gee, A,; Katzenellenbogen, B. S.; Katzenellenbogen, J. A. Altered ligand binding properties and enhanced stability of a constitutively active estrogen receptor: evidence that an open pocket conformation is required for ligand interaction. Biochemistry 1997, 36, 14897-14905; Katzenellenbogen, J. A.; Johnson, H. J., Jr.; Myers, H. N. Photoaffinity labels for estrogen binding proteins of rat uterus. Biochemistry 1973, 12, 4085-4092) as described in the Examples.
Relative binding affinities reported herein were determined by a competitive radiometric binding assay as previously described (Carlson, K. E.; Choi, I.; Gee, A.; Katzenellenbogen, B. S.; Katzenellenbogen, J. A. Altered ligand binding properties and enhanced stability of a constitutively active estrogen receptor: evidence that an open pocket conformation is required for ligand interaction. Biochemistry 1997, 36, 14897-14905; Katzenellenbogen, J. A.; Johnson, H. J., Jr.; Myers, H. N. Photoaffinity labels for estrogen binding proteins of rat uterus. Biochemistry 1973, 12, 4085-4092.) [3H]estradiol (10 nM) was used as tracer ([6,7-3H]estra-1,3,5,(10)triene-3,17-β-diol, 51-53 Ci/mmol, Amersham Biosciences, Piscataway, N.J.), and purified full-length human ERalpha and ERbeta receptors purchased from Pan Vera (Madison, Wis.). Incubations were for 18-24 h at 0° C. Hydroxyapatite (BioRad, Hercules, Calif.) was used to absorb the receptor-ligand complexes and free ligand was washed away. The binding affinities are expressed as relative binding affinity (RBA) values with the RBA of estradiol set to 100%. The values given are the average±range or SD of two to three independent determinations. […]

ERα = biological target: T3, ERα (Homo sapiens, UniProt P03372); assay: Antagonism of estrogen-induced 2x-pS2-ERE-Luc reporter expression in HEC-1 cells transfected with ERα; conditions: ligand + E2 at 1 nM, 24 hours, luciferase, pS2 promoter
T3 sequence (P03372 1-595): T1 sequence (P03372 1-595)
Method: (§1) Values are expressed as % of E2 activity at 1 nM and are the mean of duplicate determinations.
(§2) The data presented was measured using a reporter gene under the control of the pS2 promoter. […] Human endometrial cancer (HEC-1) cells were maintained in minimum essential medium (MEM) plus phenol red supplemented with 5% calf serum and 5% fetal calf serum. […] The cells were incubated at 37° C. in a 5% CO2-containing incubator for 5 h. The medium was then replaced with fresh improved MEM supplemented with 5% CDCS plus the desired concentrations of ligand. Cells were harvested 24 h later.

ERβ = ERβ (Homo sapiens, UniProt Q92731); assay: Antagonism of estrogen-induced 2x-pS2-ERE-Luc reporter expression in HEC-1 cells transfected with ERβ; conditions: ligand + E2 at 1 nM, 24 hours, luciferase, pS2 promoter
Method: as §1, §2

[3] = tested on: U2-OS cells stably expressing either ERα or ERβ; assay: Endogenous gene expression (cystatin D, GREB1 mRNA, quantitative PCR) in U2-OS cells stably expressing ERα or ERβ; conditions: 24 hours, mRNA by quantitative PCR
Method: Expression levels of cystatin D (A and B) or of GREB1 (C and D) mRNA were determined by quantitative PCR methods.
More specifically real-time PCR was carried out on the indicated genes to evaluate mRNA levels of ER alpha or ER beta in U2-OS stably transfected cells. […] One microgram of total RNA from each sample was reverse transcribed in a total volume of 20 μl using 200 U reverse transcriptase, 50 pmol random hexamers, and 1 mM deoxynucleotide triphosphates (New England Biolabs, Beverly, Mass.). The resulting cDNA was then diluted to a total volume of 100 μl. Each real-time PCR consisted of 5 μl of diluted reverse transcription product, 1× SYBR Green PCR Master Mix (Applied Biosystems, Foster City, Calif.), and 50 nM of forward and reverse primers. Reactions were carried out in an ABI Prism 7700 Sequence Detection System (Applied Biosystems) for 40 cycles (95 C for 15 sec, 60 C for 1 min) after an initial 10-min incubation at 95 C. The FC in expression was calculated using the DDCt comparative threshold cycle method with the ribosomal protein 36B4 mRNA as an internal control. Gene expression is normalized to an endogenous reference gene (36B4) and the FC in gene expression is then determined relative to the vehicle-treated control.

ovariectomized mice = conditions: dose 250 micrograms; cited from earlier work

ERβ, sequence (Q92731 whole entry, species assumed): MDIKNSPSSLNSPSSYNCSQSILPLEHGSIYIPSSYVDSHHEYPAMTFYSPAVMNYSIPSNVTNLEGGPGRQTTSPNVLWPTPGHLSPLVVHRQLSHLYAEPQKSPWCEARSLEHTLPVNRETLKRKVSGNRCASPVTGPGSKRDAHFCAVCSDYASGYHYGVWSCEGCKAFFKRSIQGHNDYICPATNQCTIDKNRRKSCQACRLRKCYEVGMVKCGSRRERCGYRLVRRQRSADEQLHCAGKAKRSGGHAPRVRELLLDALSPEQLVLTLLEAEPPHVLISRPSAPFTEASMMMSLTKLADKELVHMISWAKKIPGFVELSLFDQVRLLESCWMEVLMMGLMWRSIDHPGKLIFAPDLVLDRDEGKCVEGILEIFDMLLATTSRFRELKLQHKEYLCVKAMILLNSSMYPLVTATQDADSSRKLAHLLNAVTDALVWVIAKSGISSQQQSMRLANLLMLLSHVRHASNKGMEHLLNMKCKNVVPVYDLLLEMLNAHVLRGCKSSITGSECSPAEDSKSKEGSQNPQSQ
T2 sequence (Q92731 whole entry): as the sequence (Q92731 whole entry, species assumed) above

Compound | Relative binding affinity (RBA) ERα [1] | Relative binding affinity (RBA) ERβ [2] | ERβ/ERα (ratio of RBAs) [2] | other results
CC(C)N(c1ccc(O)cc1)S(=O)(=O)c1ccc(O)cc1 [Compound 20g, N-Isopropyl-4-hydroxy-N-(4-hydroxy-phenyl)-benzenesulfonamide] | 0.012% | 0.22% | 18 | –
CCCN(c1ccc(O)c(Cl)c1)S(=O)(=O)c1ccc(O)cc1 [Compound 24b, N-(3-Chloro-4-hydroxy-phenyl)-4-hydroxy-N-propyl-benzenesulfonamide] | 0.005% | 0.038% | 7.6 | –
CCCCN(c1ccc(O)cc1)S(=O)(=O)c1ccc(O)cc1 [Compound 20d, N-Butyl-4-hydroxy-N-(4-hydroxy-phenyl)-benzenesulfonamide] | 0.023% | 1.15% | 50 | –
CCC(CC)N(c1ccc(O)cc1)S(=O)(=O)c1ccc(O)cc1 [Compound 20j, N-(1-Ethyl-propyl)-4-hydroxy-N-(4-hydroxy-phenyl)-benzenesulfonamide] | 0.018% | 0.11% | 6.1 | –
O=S(=O)(c1ccc(O)cc1)N(CC(F)(F)F)c1ccc(O)cc1 [Compound 20k, 4-Hydroxy-N-(4-hydroxy-phenyl)-N-(2,2,2-trifluoro-ethyl)-benzenesulfonamide] | 0.020% | 0.17% | 8.5 | –
CCCN(c1ccc(O)c(F)c1)S(=O)(=O)c1ccc(O)cc1 [Compound 24a, N-(3-Fluoro-4-hydroxy-phenyl)-4-hydroxy-N-propyl-benzenesulfonamide] | 0.011% | 0.254% | 23 | –
CCCN(c1ccc(O)cc1)S(=O)(=O)c1ccc(O)cc1 [Compound 20c, 4-Hydroxy-N-(4-hydroxy-phenyl)-N-propyl-benzenesulfonamide] | 0.026% | 2.56% | 98 | ER beta selectivity [2]: 98 fold; Antagonism on estrogen-induced gene expression through ERα (ERα; listed as FS-2): do not act as antagonists; also recorded: lack of antagonism; Antagonism on estrogen-induced gene expression through ERβ (ERβ; listed as FS-2): do not act as antagonists; also recorded: lack of antagonism; Potency in endogenous gene regulation compared to the dose response of estradiol [3]: preferential potency through ERbeta; Regulation of endogenous genes (cystatin D and GREB1) [3]: preferential regulation through ERbeta
CCN(c1ccc(O)cc1)S(=O)(=O)c1ccc(O)cc1 [Compound 20b, N-Ethyl-4-hydroxy-N-(4-hydroxy-phenyl)-benzenesulfonamide] | 0.007% | 0.28% | 40 | –
O=S(=O)(c1ccc(O)cc1)N(CCC(F)(F)F)c1ccc(O)c(Cl)c1 [Compound 28b, N-(3-Chloro-4-hydroxy-phenyl)-4-hydroxy-N-(3,3,3-trifluoro-propyl)-benzenesulfonamide] | 0.003% | 0.023% | 7.7 | –
O=S(=O)(c1ccc(O)cc1)N(CCC(F)(F)F)c1ccc(O)c(F)c1 [Compound 28a, N-(3-Fluoro-4-hydroxy-phenyl)-4-hydroxy-N-(3,3,3-trifluoro-propyl)-benzenesulfonamide] | 0.009% | 0.178% | 20 | –
CCCCCN(c1ccc(O)cc1)S(=O)(=O)c1ccc(O)cc1 [Compound 20f, 4-Hydroxy-N-(4-hydroxy-phenyl)-N-pentyl-benzenesulfonamide] | 0.047% | 0.60% | 13 | –
CCCC(C)N(c1ccc(O)cc1)S(=O)(=O)c1ccc(O)cc1 (stereo not drawn) [Compound 20i, 4-Hydroxy-N-(4-hydroxy-phenyl)-N-(1-methyl-butyl)-benzenesulfonamide] | 0.013% | 1.3% | 100 | –
CC(C)CN(c1ccc(O)cc1)S(=O)(=O)c1ccc(O)cc1 [Compound 20e, N-Isobutyl-4-hydroxy-N-(4-hydroxy-phenyl)-benzenesulfonamide] | 0.013% | 0.14% | 11 | –
CN(c1ccc(O)cc1)S(=O)(=O)c1ccc(O)cc1 [Compound 20a, 4-Hydroxy-N-(4-hydroxy-phenyl)-N-methyl-benzenesulfonamide] | 0.009% | 0.058% | 6.4 | –
O=S(=O)(c1ccc(O)cc1)N(CCC(F)(F)F)c1ccc(O)cc1 [Compound 20l, 4-Hydroxy-N-(4-hydroxy-phenyl)-N-(3,3,3-trifluoro-propyl)benzenesulfonamide] | 0.006% | 1.27% | 212 | ER beta selectivity [2]: 212 fold; Antagonism on estrogen-induced gene expression through ERα (ERα; listed as FS-5): do not act as antagonists; also recorded: lack of antagonism; Antagonism on estrogen-induced gene expression through ERβ (ERβ; listed as FS-5): do not act as antagonists; also recorded: lack of antagonism; Potency in endogenous gene regulation compared to the dose response of estradiol [3]: preferential potency through ERbeta; Regulation of endogenous genes (cystatin D and GREB1) [3]: preferential regulation through ERbeta
COc1ccc(S(=O)(=O)N(c2ccccc2)c2ccccc2)cc1 [compound VIII] | – | – | – | percentage of animals which responded (ovariectomized mice): 60%
CCC(C)N(c1ccc(O)cc1)S(=O)(=O)c1ccc(O)cc1 (racemic) [Compound 20h (Racemic), N-sec-Butyl-4-hydroxy-N-(4-hydroxy-phenyl)-benzenesulfonamide] | 0.006% | 0.97% | 162 | ER beta selectivity [2]: 162 fold
